The subject of one test is MDA-MB-231. The test can be described thus: Antiproliferative activity against human MDA-MB-231 cells assessed as inhibition of cell growth incubated for 48 to 72 hrs by MTS assay. It is filed as functional, cell-based. In general terms: Formazan colour is commonly taken as a measure of viable cells.
The test system of test [1] is SK-BR-3. In words: Antiproliferative activity against human SK-BR-3 cells assessed as inhibition of cell proliferation. It is filed as functional, cell-based.
Test [2] has as its target T1, Heat shock protein HSP 90-alpha (Homo sapiens, UniProt P07900). The test can be described thus: Binding affinity to human recombinant HSP90alpha C-terminal domain (563 to 732 residues) expressed in Escherichia coli BL21(DE3) cells assessed as dissociation constant incubated for 15 mins by microscale thermophoresis analysis.
A further test has as its system K562. In words: Antiproliferative activity against BCR-ABL1 positive human K562 cells assessed as inhibition of cell growth incubated for 72 hrs by ATP-based celltiter Glo assay. The note with it: K562, 72 h. It is filed as functional.
A further test deals with Heat shock protein HSP90 (Homo sapiens, UniProt P07900+P08238). The test can be described thus: Binding affinity to NT-647 labelled recombinant HSP90 (unknown origin) C-terminal domain assessed as dissociation constant by microscale thermophoresis analysis. Format: protein assay. In general terms: Microscale thermophoresis detects binding through changes in fluorescence in a small temperature gradient.

The test system of test [3] is NCI-H1299. In words: Antiproliferative activity against human NCI-H1299 cells assessed as inhibition of cell growth. Format: functional, cell-based.
Test [4] has as its system MCF7. The test can be described thus: Antiproliferative activity against human MCF7 cells assessed as inhibition of cell proliferation incubated for 72 hrs by MTS assay. It is filed as functional, cell-based. The note with it: MCF7, 72 h.
In test [5] the target is T1, Heat shock protein HSP 90-alpha. In words: Binding affinity to recombinant HSP90alpha (unknown origin) assessed as dissociation constant incubated for 30 mins by intrinsic fluorescence based spectroscopic analysis.
In test [6] the target is Heat shock protein HSP 90-beta (Homo sapiens, UniProt P08238). The test can be described thus: Binding affinity to recombinant HSP90beta (unknown origin) assessed as dissociation constant incubated for 30 mins by intrinsic fluorescence based spectroscopic analysis.
Chain of Heat shock protein HSP 90-beta (P08238 whole entry): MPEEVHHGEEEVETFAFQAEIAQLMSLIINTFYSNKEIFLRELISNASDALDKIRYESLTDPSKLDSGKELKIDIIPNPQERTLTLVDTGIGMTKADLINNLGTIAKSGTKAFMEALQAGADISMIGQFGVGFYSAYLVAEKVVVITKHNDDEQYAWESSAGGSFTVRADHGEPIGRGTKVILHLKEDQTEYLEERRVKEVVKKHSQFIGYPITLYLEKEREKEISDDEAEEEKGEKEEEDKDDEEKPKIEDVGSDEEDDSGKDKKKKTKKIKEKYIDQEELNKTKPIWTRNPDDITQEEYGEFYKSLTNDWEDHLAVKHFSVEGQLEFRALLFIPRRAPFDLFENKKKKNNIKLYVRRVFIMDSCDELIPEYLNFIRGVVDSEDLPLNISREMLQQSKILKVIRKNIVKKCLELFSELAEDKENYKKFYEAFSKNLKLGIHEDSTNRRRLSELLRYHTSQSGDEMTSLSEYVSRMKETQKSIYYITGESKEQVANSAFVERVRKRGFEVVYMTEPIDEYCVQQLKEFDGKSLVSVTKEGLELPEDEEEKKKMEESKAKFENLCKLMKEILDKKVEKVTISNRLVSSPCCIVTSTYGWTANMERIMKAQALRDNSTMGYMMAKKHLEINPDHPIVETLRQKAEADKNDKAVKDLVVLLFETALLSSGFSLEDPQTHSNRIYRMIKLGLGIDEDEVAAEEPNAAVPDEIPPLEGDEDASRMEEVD
Test [7] is described as follows: Antiproliferative activity against human LNCap-LN3 cells assessed as inhibition of cell growth incubated for 24 hrs by CellTiter-glo luminescence assay. It is filed as functional, cell-based. The note with it: LNCaP-LN3, 24 h. (In ATP-based viability assays light output follows the ATP content of the culture.)
The next test has as its system HCT-116. The test can be described thus: Antiproliferative activity against human HCT-116 cells assessed as reduction in cell viability incubated for 72 hrs by MTT assay. It is filed as functional, cell-based. The note with it: HCT-116, 72 h.
Test [8] has as its system NCI-H1299. The test can be described thus: Antiproliferative activity against human NCI-H1299 cells assessed as reduction in cell viability incubated for 5 days by MTT assay. It is filed as functional, cell-based. The note with it: NCI-H1299, 120 h.
The test system of another test is UMSCC22B. In words: Antiproliferative activity against human UMSCC22B cells assessed as inhibition of orosphere formation incubated for 10 to 14 days by light microscopic analysis. Format: functional, cell-based.
Test [9] concerns the target T1, Heat shock protein HSP 90-alpha. In words: Inhibition of recombinant GST-tagged HSP90alpha NTD (9 to 236 residues) (unknown origin) ATPase activity expressed in Escherichia coli BL21 (DE3).
In a further test the test system is Jurkat. The test can be described thus: Antiproliferative activity against human jurkat cells assessed as reduction in cell viability incubated for 48 hrs by MTT assay. Format: functional, cell-based.
Test [10] deals with NCI-H1299. The test can be described thus: Antiproliferative activity against human NCI-H1299 cells assessed as inhibition of cell growth incubated for 3 days by MTT assay. Format: functional, cell-based. The note with it: NCI-H1299, 72 h.
The test system of test [11] is NCI-H1299. The test can be described thus: Antiproliferative activity against human NCI-H1299 cells assessed as reduction in cell viability incubated for 2 to 3 days by MTT assay. It is filed as functional, cell-based.
A further test concerns UACC-62. The test can be described thus: Antiproliferative activity against human UACC-62 cells assessed as inhibition of cell growth. Format: functional.
Test [12] deals with SK-BR-3. In words: Antiproliferative activity against human SK-BR-3 cells assessed as inhibition of cell proliferation incubated for 72 hrs by MTS proliferation assay. The note with it: SK-BR-3, 72 h. Format: functional, cell-based.
Test [13] has as its system MCF7. The test can be described thus: Antiproliferative activity against human MCF7 cells assessed as inhibition of cell proliferation by MTS assay. Format: functional, cell-based.
A further test has as its system SK-N-MC. The test can be described thus: Antiproliferative activity against human SK-N-MC cells assessed as inhibition of cell proliferation by MTS assay. It is filed as functional, cell-based.
Test [14] concerns the target T1, Heat shock protein HSP 90-alpha. The test can be described thus: Binding affinity to recombinant human HSP90alpha assessed as dissociation constant measured for 300 secs by SPR analysis.

By IC50 is commonly meant the midpoint of a concentration-inhibition curve. The Kd is the concentration at which binding is half-saturated. Broadly, the EC50 is the concentration giving half of the maximal effect.

On to `COc1cc2nccc(C(OC(=O)C3CC3)c3ccc4c(c3)C=CC(C)(C)O4)c2cc1OC` (stereo not given), for which the IC50 in the test with MDA-MB-231 is 5000 nM.

Regarding `Cc1ccc(Cn2cc(C(=O)Nc3ccc(/C=C/c4ccc(OC5CCN(C)CC5)cc4)cc3)nn2)cc1`, the IC50 with SK-BR-3 [1] is 99 nM.

In the case of `CCC(C)n1c(C(=O)NC2CN=C(C(=O)NC)N(CC(C)C)C2=O)ncc(NC(=O)c2ncc(NC(=O)c3ccccc3)c(=O)n2Cc2ccc(OC)cc2)c1=O` (stereo not given), in test [2], the Kd was found to be 3420 nM. Also, the half-maximal inhibitory concentration (IC50) in the test on K562 worked out at 1300 nM.

Regarding `COc1cccc(-c2cc(C(=O)Nc3ccc(/C=C/c4ccc(OC5CCN(C)CC5)cc4)cc3)ccc2OC)c1`, the IC50 in the test with SK-BR-3 [1] turned out to be 680 nM.

Turning to `CC[C@@H](C)[C@@H](ONC(=O)[C@H](ONC(=O)[C@@H](Cc1ccccc1)ONC(=O)[C@@H](Cc1ccccc1)ONC(=O)OCc1ccccc1)[C@H](C)CC)C(=O)NO[C@H](CC(C)C)C(=O)NO[C@H](CC(C)C)C(N)=O`, the Kd on Heat shock protein HSP90 is 27400 nM.

Consider `COc1ccc(CC(=O)c2ccc3c(c2OC)C=CC(C)(C)O3)cc1OC`, for which the concentration for half-maximal inhibition (IC50) in the test with NCI-H1299 [3] is 140 nM.

With `Cc1ccc(Cl)c(OCC2(O)CCN(Cc3ccc(OCCN4CCOCC4)cc3)CC2)c1`, the IC50 in the test on MCF7 [4] is 31800 nM.

`Cc1c(OCCC2CCCCN2)ccc2cc(NC(=O)Nc3ccc(Cl)cc3)c(=O)oc12` (stereo not given): the Kd in test [5] came out at 191000 nM; in [6] it was 726000 nM. The IC50 in test [7] was 2000 nM.

Turning to `COc1ccc2c(c1OC)O[C@]13C(=O)N4O[C@H]5[C@H](O)C=C[C@@H](Cl)[C@@]5(O)C[C@@]4(SS[C@H]21)C(=O)N3C`, the IC50 in the test with HCT-116 came to 330 nM.

With `COc1cc(NC(=O)c2ccc3c(c2OC)C=CC(C)(C)O3)ccc1OCCc1cccnc1`, the EC50 in the test with NCI-H1299 [8] is 230 nM.

Take `COc1cccc(-c2cccc(NC(=O)Nc3cc4ccc(OC5CCN(C)CC5)c(C)c4oc3=O)c2)c1`: the IC50 in the test on UMSCC22B came to 1000 nM.

`COc1cc2nccc(C(OC(=O)C3CC3)c3ccc4c(c3OC)C=CC(C)(C)O4)c2cc1OC` (stereo not given): in the test on NCI-H1299 [3] (Homo sapiens, NCI-H1299, read-out: IC50), the IC50 came out at 1000 nM.

Take `CC(C)(C)CC(C)(C)NCC(O)COc1ccc(C(C)(C)c2ccc(OCC(O)CNC(C)(C)CC(C)(C)C)cc2)cc1` (stereo not given): in test [9], the IC50 was found to be 119000 nM.

Regarding `Cc1c(OC2CCN(C)CC2)ccc2cc(NC(=S)Nc3cccc(Cl)c3)c(=O)oc12`, the IC50 in the test on UMSCC22B worked out at 20000 nM.

With `CCOC(=O)C1=C(C)N(c2ccccc2)C(=O)NC1c1cc(O)ccc1Br` (stereo not given), the IC50 in the test on Jurkat stood at 15200 nM.

For the compound `COc1cc2nccc(C(OC(C)=O)c3ccc4c(c3OC)C=CC(C)(C)O4)c2cc1OC` (stereo not given), the IC50 in the test with NCI-H1299 [10] worked out at 1000 nM.

Turning to `COc1cc(NC(=O)c2ccc3c(c2OC)C=CC(C)(C)O3)ccc1OCCc1ccncc1`, the IC50 in the test with NCI-H1299 [11] is 230 nM.

As to `COc1cccc(-c2cc(NC(=O)Nc3cc4ccc(OC5CCN(C)CC5)c(C)c4oc3=O)ccc2C)c1`, the 50% inhibitory concentration (IC50) in the test on UACC-62 is 360 nM.

`COc1cc(NC(=O)c2ccc3c(c2OC)C=CC(C)(C)O3)ccc1OCCC1CCCCN1` (stereo not given): the IC50 in the test on SK-BR-3 [12] worked out at 2000 nM.

With `Nc1c(C(=O)c2ccc(-c3ccc(Br)cc3)cc2)sc2nc3c(c(-c4ccccc4)c12)CNCC3`, the IC50 in the test with MCF7 [13] is 1400 nM; in the test on SK-N-MC, 2800 nM.

`COc1ccc(NCC(=O)Nc2ncc(Cc3ccc(Cl)c(Cl)c3)s2)cc1`: the Kd in test [14] was 20.9 nM.

The record behind these values is ChEMBL document CHEMBL5223152, “Recent advances toward the development of Hsp90 C-terminal inhibitors” (Bioorg Med Chem Lett, 2023).
